Molecular target: Rv1515c (Mycobacterium tuberculosis, UniProt P71794)
Sequence (P71794 entry or part of it): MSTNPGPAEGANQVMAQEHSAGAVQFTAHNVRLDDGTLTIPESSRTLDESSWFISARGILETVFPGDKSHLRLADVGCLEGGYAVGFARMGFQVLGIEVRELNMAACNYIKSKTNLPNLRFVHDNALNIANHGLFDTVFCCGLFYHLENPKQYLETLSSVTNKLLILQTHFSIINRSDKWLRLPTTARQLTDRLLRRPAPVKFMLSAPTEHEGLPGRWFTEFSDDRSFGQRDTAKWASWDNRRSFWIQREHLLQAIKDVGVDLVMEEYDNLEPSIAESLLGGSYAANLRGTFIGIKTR

Q: Which “EpiQuik DNA MTase kit, 5-methylcytosine antibody detection, absorbance 450 nm” value does the source give for `C[S+](CC[C@H](N)C(=O)O)C[C@H]1O[C@@H](n2cnc3c(N)ncnc32)[C@H](O)[C@@H]1O` (stereo partly shown) [S-adenosylmethionine] here?
A: The value was “ability of the Rv1515c to transfer a methyl group from Adomet to cytosine”.

Source: paper PMC9263924, “Mycobacterium tuberculosis Methyltransferase Rv1515c Can Suppress Host Defense Mechanisms by Modulating Immune Functions Utilizing a Multipronged Mechanism” (Frontiers in Molecular Biosciences, 2022)
